This note sets out measurements from article PMC8898184 (Drug Design, Development and Therapy, 2022).

In this assay the target is T1, Bovine β-lactoglobulin (BLG) (Bos taurus, UniProt P02754).
T1 sequence (P02754 17-178): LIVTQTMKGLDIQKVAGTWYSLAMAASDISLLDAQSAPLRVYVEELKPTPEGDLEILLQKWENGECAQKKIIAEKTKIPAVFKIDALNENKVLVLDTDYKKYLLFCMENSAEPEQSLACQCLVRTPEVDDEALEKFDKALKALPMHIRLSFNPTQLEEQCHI
As to the kind of experiment: tryptophan fluorescence quenching. Conditions: PBS, pH 7.4, 37 °C; 5 μM BLG; double-log. Type of assay: binding.

As to `CC(=O)Oc1ccccc1C(=O)O` [aspirin], the “Kb (×10^3 M^-1)” value was 2.051 × 10^3 M^-1.
